Where only a bound is given, the exact number is not on record here.

A word on the melting point: it is the temperature, or range, at which the solid turns liquid. `Cn1cnc2nc(-c3ccc(F)cc3)nn2c1=S`: the melting point is > 300 °C.
With `Cc1nc(N2CCN(Cc3ccc(F)cc3)C2=O)sc1C(=O)NCc1ccccn1`, the melting point was 183 to 185 °C.
In the case of `O=C(O)C(=O)CC(=O)c1ccn(Cc2ccccc2)c1` it was 151 to 152 °C; in that of `c1coc(-c2nnc(Sc3cnccn3)o2)c1`, 92 to 93 °C.
In the case of `CC(=NO)c1cnc2c(NC(=O)c3c(Cl)cccc3Cl)cccc2c1` it was 215 to 243 °C; in that of `CC(C)NC1=NS(=O)(=O)c2ccc(CC(=O)O)cc2N1`, 262 to 264 °C; in that of `CC(C)(C)C(NC(=O)c1ccc(Cl)cc1)Nc1c(Nc2ccncc2)c(=O)c1=O` (centres undefined), 244 to 246 °C.
The result for `O=C1N(C(c2ccccc2)c2ccccc2)c2cc(F)ccc2C12COc1cc3c(cc12)CCO3` (centres undefined) reads 194 to 196 °C; that for `O=C1OC[C@H](c2ccccc2)N1C(=O)C1C=C1`, 118 to 119 °C; that for `Cn1cc(Br)cc(Nc2ccc(OC3CN(C(=O)OC(C)(C)C)C3)cn2)c1=O`, 120 to 121 °C.
Take `O=C1CCC(C(=O)Nc2ccc(-n3nc(C(F)(F)F)cc3C(F)(F)F)cc2)O1` (centres undefined): the melting point was in the range of 172 to 173 °C.
In turn, `CC(C)=CCOc1ccc(C(=O)C=Cc2ccc(C)cc2)c(O)c1` yielded a melting point of 108 to 109 °C.
`CCCn1cc(-c2c(-c3ccccc3)nn3ccncc23)ccc1=O` came in with a melting point of 165 to 166 °C.
In the case of `COc1cc(C(=O)NC2OCC(c3ccccc3)N3CCCCC23)cc(OC)c1OC` (centres undefined) it was 126 to 128 °C; in that of `CCCN1CCC(c2cccc(C(N)=O)c2)CC1`, 182 °C; in that of `O=C(COCC(=O)Nc1ccc([N+](=O)[O-])c(C(F)(F)F)c1)Nc1ccc([N+](=O)[O-])c(C(F)(F)F)c1`, 137 to 138 °C.
In the case of `Cc1ccc2c(c1)nc(C)c(=O)n2-c1ccc(Cl)cc1` it was 223 to 225 °C.
In the case of `Cc1nc(-n2cnn(CC3CC3)c2=O)sc1C(=O)NCc1ccncc1` it was 169 to 170 °C; in that of `CCOC(=O)c1cn(C)cc(-c2ccccc2)c1=O`, 107 to 108 °C; in that of `C=CCn1c(-c2cccc(Cl)c2[N+](=O)[O-])nc2ccccc21`, 148 to 150 °C.
For the compound `NS(=O)(=O)c1cc2c(c(C(=O)N3CCN(c4ncccn4)CC3)c1)OCCO2`, the melting point stood at 239 °C.
The result for `CCOC(=O)NN=C(C)c1ccccn1` reads 113 °C; that for `COC(=O)COc1ccc(C(=O)CBr)c2ccccc12`, 99 to 101 °C; that for `CC(Nc1c(-c2ccc(C#N)cc2)c(=O)c1=O)C(C)(C)C` (centres undefined), 192 to 194 °C.
The compound `CC(=O)OCc1ccc(C#Cc2ccc3c(c2)C(C)(C)CCC3(C)C)cc1` registered a melting point of 136 to 139 °C.
As for `COCc1c(N2CCN(C)CC2)c(F)cc2c(=O)c(C(=O)OC)cn(C3CC3)c12`, the melting point was in the range of 200 to 204 °C.
The result for `Cc1ccc(C(Cl)=NNc2ccccc2)cc1` reads 133 to 134 °C.
In the case of `Cc1noc(C)c1-c1ccccc1C=NC(c1ccccc1)c1ccccc1` it was 165 to 167 °C; in that of `O=C(CCc1oc(-n2ccnc2)nc1-c1ccc(Cl)cc1)NCCCl`, 130 to 131 °C; in that of `CCOC(=O)c1nc2ccccc2[nH]c1=O`, 169 to 170 °C.
In the case of `O=S(=O)(Nc1ccc(F)cc1C(=NOc1ccc(Cl)cc1)c1ccccc1)C(F)(F)F` it was 90 to 93 °C.
`COc1ccc(C(=O)c2c(CBr)n(C(C)=O)c(=O)n2C(C)=O)cc1` yielded a melting point of 135 to 136 °C.
On to `Cc1ccccc1C=C1CCn2c1nc1ccc(C(N)=O)cc1c2=O`, for which the melting point is 347 to 349 °C.
In the case of `COc1ccc(CCc2nccn3c(Br)cc(Br)c23)cc1` it was 75 to 76 °C; in that of `CCOC(=O)C=CC=Cc1ccc(C=Cc2nc(-c3ccco3)oc2C)cc1`, 155 to 156 °C.
`CCCCCC(=O)C=Cc1ccc(CCCCCCCC(=O)O)o1` showed a melting point of 58 to 59 °C.
The compound `COc1ccc(C(CC2=NN(C)C(=O)C2)c2ccccc2)cc1OC1CCCC1` (centres undefined) came in with a melting point of 105 to 108 °C.
In the case of `O=c1c(-c2ccccc2)c[nH]cc1-c1ccccc1` it was > 335 °C; in that of `CCOC(=O)C(Oc1ccc(Cl)cc1)C(=O)OCC`, 43.5 to 45 °C; in that of `CS(=O)c1c(C#N)nn(-c2c(Cl)cc(C(F)(F)F)cc2Cl)c1NCc1cnccn1` (centres undefined), 198 °C.
In the case of `O=C1C(=O)c2ccccc2C2=C1SCC1(CCCN(CC(O)Cc3ccccc3)C1)O2` (centres undefined) it was 59 to 60 °C; in that of `COC(=O)c1cc2c(Cl)cccc2s1`, 84 to 86 °C.
The result for `COc1ccc(-c2cc(CN3C(=O)c4ccccc4C3=O)c(=O)n(CC3CC3)n2)cc1F` reads 242 to 244 °C.
The compound `CC1=NN(C(=O)c2ccccc2Cl)C2(O)CCCC12` (centres undefined) had a melting point of 147 to 150 °C.
The result for `Nc1cc(F)c(Sc2ccc(C(F)(F)F)cc2Cl)cc1F` reads 95.9 °C.
Take `CCCCc1nc(S(C)=O)c(C(=O)O)n1Cc1ccc(-c2ccccc2C(=O)O)cc1` (centres undefined): the melting point turned out to be 208 °C.
Regarding `O=c1[nH]c2sccc2c(=O)n1CCN1CCC(=C(c2ccc(F)cc2)c2ccc(F)cc2)CC1`, the melting point lay within 205 to 207 °C.
The result for `CCN(CC)C(=O)n1ccc(Sc2c(C)cccc2Cl)n1` reads 57 to 58 °C.
In the case of `CN1CCN(c2ccc(-c3[nH]nc4c3C(=O)c3c(NC(=O)NN5CCOCC5)cccc3-4)cc2)CC1` it was 245 °C.
In the case of `O=c1[nH]c(=O)n(Cc2ccccc2)cc1C=NO` it was 172 to 174 °C.
Compound `CSC1NC(=O)N(c2ccc(C)cc2)C(=O)N1N=C(C)C` (centres undefined) gave a melting point of 170 to 173 °C.
The result for `NC(=O)Cc1ccc(-c2nc3ccccc3o2)cc1` reads 251 to 255 °C; that for `O=C(CC1Sc2ccccc2NC1=O)NCc1ccccc1` (centres undefined), 238 to 240 °C.
The result for `O=C1Nc2cc(Cl)c(Cl)cc2C1c1ccccc1Cl` (centres undefined) reads 198 to 201 °C.
The result for `CCOC(=O)c1cc(=O)n(CCC(C(=O)NO)N(C)S(=O)(=O)c2ccc(Oc3ccccc3)cc2)c(=O)[nH]1` (centres undefined) reads 159 to 160 °C; that for `Cn1nc(-c2c(F)cccc2Cl)nc1-c1ccc(CBr)c(Cl)c1`, 124 to 126 °C; that for `COCCOc1cc(N)c(Cl)cc1C(=O)OC`, 121 to 122 °C.
In turn, `O=C1NC(=Cc2ccccc2Cl)C(=O)C1=NO` gave a melting point of 176 °C.
The result for `COc1cc(OC)cc(C(=O)N2CCc3cc(OCc4ccccc4)c(OC)cc3C2)c1` reads 130 to 131 °C; that for `Cc1cc(N(C)Cc2ccc(-c3ccc(Cl)cc3)nc2)ccc1OCC(=O)O`, 174 to 176 °C; that for `CCC(CC)C(NS(=O)(=O)c1cc(Cl)c(Cl)s1)c1ccnn1-c1ccccc1` (centres undefined), 116 to 120 °C.
In the case of `CN(C)c1ccc(C=CC(=O)N2CCc3c([nH]c4ccccc34)C2c2ccc3c(c2)CCO3)cn1` (centres undefined) it was 171 °C.
The result for `O=C(O)c1ccc(/C=C/c2ccccc2-c2cccs2)cc1` reads 208 to 210 °C; that for `COc1cc(CCO[Si](C)(C)C(C)(C)C)c(C2=CC3CCC2N3C(=O)OC(C)(C)C)cn1` (centres undefined), 75 to 76 °C.
`Nc1cc(-c2c[nH]c3ncccc23)c2ccccc2n1`: the melting point turned out to be 244 °C.
`CCC1(CC)C(=O)C(C)N(c2ccc(C#N)c(Cl)c2)C1=O` (centres undefined) showed a melting point of 93.5 to 94.5 °C.
In the case of `COc1ccc(-c2c(NS(=O)(=O)c3ccc(C)cc3)ncnc2OCCO)cc1` it was 147 to 149 °C; in that of `CC(=O)c1c(-c2ccc(F)cc2)ncn1C1CC(C)(C)NC(C)(C)C1`, 134 to 136 °C.
The result for `CN(C)CC(C)(C)C(NC(=O)c1ccc(Cl)cc1)NC(=NC#N)Nc1cccnc1` (centres undefined) reads 101 to 103 °C; that for `O=C(O)COCCOc1c(-c2cccc(C(F)(F)F)c2)cc(C(=O)NCCCCCCc2ccccc2)cc1-c1cccc(C(F)(F)F)c1`, 74.7 to 75.9 °C; that for `CON(C)C(=O)Cc1cc(Oc2ccc(C(F)(F)F)cc2Cl)ccc1[N+](=O)[O-]`, 134 to 135 °C.
The result for `Cc1nn(C)c2c(Cl)nc(C(C)C)nc12` reads 87 to 89 °C.
`CC#CCOc1cc(Oc2ccc(F)c(C(F)(F)F)c2)ncn1` gave a melting point of 90.1 °C.
The result for `Cc1c(OCC(=O)O)ccc2c(=O)c3c(F)cccc3oc12` reads 259 to 261 °C.
With `CC(C)(C)c1cc(Sc2n[nH]c(=S)s2)cc(C(C)(C)C)c1O`, the melting point lay within 181 to 186 °C.
The result for `CCCc1nn(C)c2c(=O)[nH]c(-c3cc(-n4ccnc4)ccc3OCC)nc12` reads 193 to 194 °C; that for `CC(C)(C)CC(C)(C)C(CCC(=O)OO)CC(=O)OO` (centres undefined), 60 to 62 °C.
For `COc1ccc2cc(CCC(C)=O)cc(F)c2c1`, the melting point fell in the range of 69 to 70 °C.
In the case of `CC(C)N1CCN(CCN2CCN(c3cn(-c4ccc(F)cc4)c4cc(Cl)ccc34)CC2)C1=O` it was 176 to 177 °C; in that of `O=C(Nc1ccc(C(=O)N2CCCC(=NO)c3ccccc32)cc1)c1cc(Cl)cc(Cl)c1`, 272 to 273 °C; in that of `COc1ccc2[nH]c(SCc3nccc(SCc4ccco4)c3C)nc2c1`, 106 to 108 °C.
In the case of `CC(C)(O)c1ccnc(-c2ccc3nc(-c4n[nH]c5ccccc45)cn3c2)c1` it was 255 to 259 °C; in that of `COc1ccc2c(c1)c1c(n2CCCN(C)C)CCCSCC1`, 79 to 80 °C; in that of `Nc1ccccc1N1CCN(C=O)CC1`, 129 to 133 °C.
In the case of `CCC1(O)OC(=O)c2ccc(Oc3ccc(C(F)(F)F)cc3Cl)cc21` (centres undefined) it was 120 to 122 °C.
On to `C=CCc1cc(Br)ccc1OCC(=O)OCC`, for which the melting point turned out to be 70.5 °C.
In the case of `CCOc1nsc(NC(=O)Oc2ccccc2)c1C#N` it was 252 to 253 °C; in that of `CCOC(=O)c1c(O)n(C)c2cc(-c3ccncc3)ccc2c1=O`, 184 °C; in that of `CN(Cc1ccc(F)cc1)C(=O)c1cnc2c3c(ccc2c1)C(=O)C(C(=O)O)C=N3` (centres undefined), 245 to 246 °C.

The values are drawn from a melting point compilation (Tetko et al.; mined from patent text by program, amines drawn as free bases though some values may be those of a salt).
